Reference: patent US20210333284A1, “METHODS AND MATERIALS FOR LARGE-SCALE ASSESSMENT OF LIGAND BINDING SELECTIVITY OF G-QUADRUPLEX RECOGNITION USING CUSTOM G4 MICROARRAYS” (Purdue Research Foundation, priority 2020, published 2021)

Experiments:
[1] = tested on: G4 sequences on custom G4 microarray; test: G4 microarray competition of unlabeled molecule with Cy5-PDS; assay type: binding, human
Excerpt: (§1) Whether the microarray platform could be used to reveal the G4-binding specificity of unlabeled molecules via a competition with Cy5-PDS binding was explored. Three example molecules, unlabeled PDS, TMPyP4 (a planar molecule that nonspecifically binds G4 structures^14), and DC-34 (a molecule that selectively binds the MYC G4^15) were examined. […] The binding of unlabeled DC-34 was examined (FIG. 4). There appear to be no features that are better-bound in the presence of DC-34. […] This is consistent with the observation that DC-34 binds the top and bottom surfaces of the G4 and makes specific contacts with purines in the tail sequences.^15 The general properties of features in which DC-34 reduced binding of Cy5-PDS (ratio of PDS/PDS+DC-34) were also examined.
Microarrays were preincubated with a 100 mM potassium chloride solution for 1 h at RT to induce G4 formation. Protein binding microarray experiments were then performed as previously described.^23 Microarrays were blocked with 4% nonfat dry milk in a potassium phosphate buffer before incubation with proteins or small molecules. Expressed proteins were blocked with 4% nonfat dry milk, ssDNA, and BSA. For the validation experiments, microarrays were also treated with 100 mM lithium chloride to inhibit G4 formation. For experiments examining dsDNA, single-stranded DNA probes were made double-stranded using a primer complementary to a 24-mer constant sequence following the method described previously.^23,24 Double stranding efficiency was monitored using 4% Cy3-dCTP.
Protein or molecule-bound microarrays were scanned with the G5761A SureScan Dx Microarray Scanner System (Agilent) to detect a Cy5 signal at two laser settings (30 and 100 PMT) to ensure signal intensities were below saturation. Spot intensities from microarray images were extracted using the Agilent Feature Extraction Software and are reported as raw fluorescence units. All binding assays were performed at least twice, with high agreement between replicates (R>0.8). Microarrays with the fewest number of saturated spots were used for further analysis. […] The measured array data (Design 3, PDS) and predictions were normalized using the following
Custom G4 microarrays have been designed that contain a total of 19,249 G4 DNA sequences [31, the entirety of disclosure of which, including the supplemental information, is incorporated herein by reference]. […] After washing to remove the unbound Cy5-PDS and BMVC, the fluorescence intensities of Cy5-PDS bound to DNA oligonucleotides were detected using a fluorescence scanner. The binding selectivity of BMVC to different G4 structures was assessed by measuring the relative fluorescence intensity reduction of Cy5-PDS as BMVC concentration increased. […]

[2] = tested on: MYC G4 flanking variants 5′-NNGGGTGGGGAGGGTGGGNN-3′; test: G4 microarray competition with Cy5-PDS, flanking (tail) variants; parameters: species or system human; details: from reduction of Cy5-PDS binding in the presence of competitor
Excerpt: as §1, with “also examined. […]” for “also examined.”
DNA Microarray Binding Experiments DNA microarray experiments were performed and analyzed as described previously. […]
Data Processing and Analysis Molecule-bound microarrays were scanned with an Agilent G5761A SureScan Dx Microarray Scanner System to detect Cy5 signal at two laser settings (30 and 100 PMT). Spot intensities from microarray images were extracted using Agilent Feature Extraction Software and are reported as raw fluorescence intensities. […]

binding selectivity profile to different G4 sequences ([1]; 1 μM unlabeled ligand and 1 μM Cy5-PDS): more pronounced binding selectivity
Structure (SMILES): C[n+]1ccc(/C=C/c2ccc3[nH]c4ccc(/C=C/c5cc[n+](C)cc5)cc4c3c2)cc1.[I-].[I-] [BMVC, 3,6-Bis(1-methyl-4-vinylpyridinium) carbazole diiodide]
reduction of fluorescence intensity of Cy5-PDS ([1]; most known G4s, 1 μM Cy5-PDS, equimolar (1 μM) BMVC): 50%
flanking sequence preference of competitor [2]: strongly prefers the MYC G4 with the 3′-flanking T
